The values below come from patent US8313949B2, “Detecting phospholipidosis and diagnosing lysosomal storage disorders” (Nextcea Inc., priority 2009, dated 2012).

Structures are written as SMILES.

Series [1] relates to rats. The series can be described thus: Urinary di-C22:6-BMP levels during 17-day azithromycin treatment (Example 4). In kind it is in vivo, rat. The following applies: azithromycin 150 mg/kg/day, all isoforms (FIG. 9). On the procedure: The methods described above were used to evaluate the tissue phospholipidosis induced by azithromycin (150 mg/kg/day) in rats over a 17-day period. Urine samples were collected from the rats on Days 11 and 17 and subjected to the assay. […] On Day 11, the mean level (n=5 rats per group) of di-C22:6-BMP in urine was increased by 2.6-fold in the rats treated with azithromycin compared to the controls. On Day 17, the mean level (n=5 rats per group) of di-C22:6-BMP in urine was increased approximately by 4.5-fold in the azithromycin treated rats compared to the control rats.

Series [2] deals with rats. The following applies: rat, in vivo.
Method: The relationship between amiodarone, azithromycin, or citalopram exposure and the occurrence of drug-induced phospholipidosis was investigated in Fisher rats. Rats were treated with amiodarone (50 mg/kg/day), azithromycin (100 mg/kg/day), citalopram (90 mg/kg/day), or no drug for 4-weeks. Urine samples were collected from each animal and prepared for analysis using a liquid/liquid extraction method. The urine samples (200 μl urine per rat) were mixed with cold 3:1 chloroform/methanol (v/v) (400 μl) and vortexed before adding 0.1% formic acid (aq.) (100 μl). The samples were vortexed again, allowed to sit for 5 min, and centrifuged for 15 min. The bottom (organic) layer was carefully removed and concentrated to dryness. The samples were reconstituted to 30 μl with 0.05% formic acid in 2:1 acetonitrile/methanol (v/v).
The molecular profile of each urine sample was acquired using liquid chromatography coupled to mass spectrometry (LC/MS). Injections were made onto a 150×2.00 mm Synergi Hydro-RP column (Phenomenex, Torrance, Calif., USA) using an a Gilson 235 auto-injector (Gilson, Inc., Middletown, Wis., USA) and an Agilent 1100 binary pump (Agilent Technologies, Palo Alto, Calif., USA). Mobile phase A was 0.25% ammonium hydroxide, 0.05% formic acid in 88:12 methanol/water (v/v). Mobile phase B was 0.25% ammonium hydroxide, 0.05% formic acid in 80:20 methanol/hexane (v/v). […]
In series [3] the test system is bronchoalveolar lavage (BAL) cells. The settings on record: patients with amiodarone pulmonary toxicity; Martin and Standing 1988; cited from earlier work.

Turning to `CC[C@H]1OC(=O)[C@H](C)[C@@H](O[C@H]2C[C@@](C)(OC)[C@@H](O)[C@H](C)O2)[C@H](C)[C@@H](O[C@@H]2O[C@H](C)C[C@H](N(C)C)[C@H]2O)[C@](C)(O)C[C@@H](C)CN(C)[C@H](C)[C@@H](O)[C@]1(C)O` [azithromycin], the “increase of mean level of di-C22:6-BMP in urine compared to controls, Day 11” value in series [1] (Day 11, n=5 rats per group) amounted to 2.6 fold. Besides, the “increase of mean level of di-C22:6-BMP in urine compared to controls, Day 17” value in series [1] (Day 17, n=5 rats per group) is listed as approximately 4.5 fold.
As for `CCN(CC)CCCC(C)Nc1ccnc2cc(Cl)ccc12` (stereo not drawn) [chloroquine], the “level of di-22:6-PG in urine” value in series [2] is reported as “not”.
On to `CCCCc1oc2ccccc2c1C(=O)c1cc(I)c(OCCN(CC)CC)c(I)c1` [amiodarone], for which the “level of di-22:6-PG in urine” value in series [2] is reported as “increased”. For the same molecule, in series [3], the “increase in total BMP in BAL cells compared to control subjects” value is listed as “+64%” and the “increase in total PG in BAL cells compared to control subjects” value is “+1866%”.
